ChEMBL document CHEMBL1201862, “PubChem BioAssay data set” (2004)
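Briefly, cells in 96-well plates were exposed to five compound concentrations for 48 h, and endpoints were estimated by linear interpolation. At the GI50, growth is halved.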 Active and inactive are the calls of the source. No stated cut-off is given here; in the data, active = GI50 up to about 1.1 µM and inactive = higher.

What was measured:
Test in all cases: NCI-60 cell line screen, 48 h
786-0 = test system: 786-0
A498 = test system: A498
A549 = test system: A549
ACHN = test system: ACHN
BT-549 = test system: BT-549
CAKI-1 = test system: CAKI-1
CCRF-CEM = test system: CCRF-CEM
COLO 205 = test system: COLO 205
DU-145 = test system: DU-145
EKVX = test system: EKVX
HCC 2998 = test system: HCC 2998
HCT-116 = test system: HCT-116
HCT-15 = test system: HCT-15
HL-60 = test system: HL-60
HOP-62 = test system: HOP-62
HOP-92 = test system: HOP-92
HT-29 = test system: HT-29
Hs-578T = test system: Hs-578T
IGROV-1 = test system: IGROV-1
K562 = test system: K562
KM12 = test system: KM12
LOX IMVI = test system: LOX IMVI
M14 = test system: M14
MCF7 = test system: MCF7
MDA-MB-231 = test system: MDA-MB-231
MDA-MB-435 = test system: MDA-MB-435
MDA-N = test system: MDA-N
MOLT-4 = test system: MOLT-4
Malme-3M = test system: Malme-3M
NCI-H226 = test system: NCI-H226
NCI-H23 = test system: NCI-H23
NCI-H460 = test system: NCI-H460
NCI-H522 = test system: NCI-H522
NCI/ADR-RES = test system: NCI/ADR-RES
OVCAR-3 = test system: OVCAR-3
OVCAR-4 = test system: OVCAR-4
OVCAR-5 = test system: OVCAR-5
OVCAR-8 = test system: OVCAR-8
PC-3 = test system: PC-3
RPMI-8226 = test system: RPMI-8226
RXF 393 = test system: RXF 393
SF-268 = test system: SF-268
SF-295 = test system: SF-295
SF-539 = test system: SF-539
SK-MEL-28 = test system: SK-MEL-28
SK-MEL-2 = test system: SK-MEL-2
SK-MEL-5 = test system: SK-MEL-5
SK-OV-3 = test system: SK-OV-3
SN12C = test system: SN12C
SNB-19 = test system: SNB-19
SNB-75 = test system: SNB-75
SR = test system: SR
SW-620 = test system: SW-620
T47D = test system: T47D
TK-10 = test system: TK-10
U-251 = test system: U-251
UACC-257 = test system: UACC-257
UACC-62 = test system: UACC-62
UO-31 = test system: UO-31

For C/C=C(\C)C(=O)OC1C2C(C)C(=O)OC2C(O)C(C)C2C=CC(=O)C21C (stereo not drawn), the GI50 (786-0) was 12.1 µM (inactive), the GI50 (A498) was 16.1 µM (inactive) and the GI50 (A549) was 17.8 µM (inactive). The GI50 (ACHN) was 12.3 µM (inactive), the GI50 (BT-549) was 7.5 µM (inactive) and the GI50 (CAKI-1) was 13 µM (inactive). For the same compound, the GI50 (CCRF-CEM) was 3.06 µM (inactive), the GI50 (COLO 205) was 12.7 µM (inactive) and the GI50 (DU-145) was 10.9 µM (inactive). For the same compound, the GI50 (EKVX) was 11.7 µM (inactive), the GI50 (HCC 2998) was 13.3 µM (inactive) and the GI50 (HCT-116) was 9.59 µM (inactive). The GI50 (HCT-15) was 10.6 µM, the GI50 (HL-60) was 3.24 µM (inactive) and the GI50 (HOP-62) was 18.2 µM (inactive). For the same compound, the GI50 (HOP-92) was 13.4 µM (inactive), the GI50 (HT-29) was 15.2 µM (inactive) and the GI50 (Hs-578T) was 13.3 µM (inactive). For the same compound, the GI50 (IGROV-1) was 8.69 µM (inactive), the GI50 (K562) was 2.96 µM (inactive) and the GI50 (KM12) was 11.1 µM (inactive). For the same compound, the GI50 (LOX IMVI) was 13.2 µM (inactive), the GI50 (M14) was 14.9 µM (inactive) and the GI50 (MCF7) was 7.85 µM (inactive). The GI50 (MDA-MB-231) was 3.69 µM (inactive), the GI50 (MDA-MB-435) was 12.9 µM (inactive) and the GI50 (MDA-N) was 8.81 µM (inactive). For the same compound, the GI50 (MOLT-4) was 8.47 µM (inactive), the GI50 (Malme-3M) was 12.6 µM (inactive) and the GI50 (NCI-H226) was 16.9 µM (inactive). For the same compound, the GI50 (NCI-H23) was 10.4 µM (inactive), the GI50 (NCI-H460) was 4.49 µM (inactive) and the GI50 (NCI-H522) was 2.69 µM (inactive). The GI50 (NCI/ADR-RES) was 14.6 µM (inactive), the GI50 (OVCAR-3) was 10.8 µM (inactive) and the GI50 (OVCAR-4) was 16.9 µM (inactive). The GI50 (OVCAR-5) was 19.5 µM (inactive), the GI50 (OVCAR-8) was 11.9 µM (inactive) and the GI50 (PC-3) was 16.8 µM (inactive). The GI50 (RPMI-8226) was 4.61 µM (inactive), the GI50 (RXF 393) was 8.73 µM (inactive) and the GI50 (SF-268) was 18.6 µM (inactive). The GI50 (SF-295) was 14.7 µM (inactive), the GI50 (SF-539) was 9.27 µM (inactive) and the GI50 (SK-MEL-28) was 14.1 µM (inactive). The GI50 (SK-MEL-2) was 17.8 µM (inactive), the GI50 (SK-MEL-5) was 7.46 µM (inactive) and the GI50 (SK-OV-3) was 16.6 µM (inactive). For the same compound, the GI50 (SN12C) was 14.9 µM (inactive), the GI50 (SNB-19) was 13.2 µM (inactive) and the GI50 (SNB-75) was 15.8 µM (inactive). For the same compound, the GI50 (SR) was 2.18 µM (inactive), the GI50 (SW-620) was 14 µM (inactive) and the GI50 (T47D) was 16.7 µM (inactive). The GI50 (TK-10) was 12.5 µM (inactive), the GI50 (U-251) was 11.5 µM (inactive) and the GI50 (UACC-257) was 12.7 µM (inactive). For the same compound, the GI50 (UACC-62) was 10.5 µM (inactive) and the GI50 (UO-31) was 14.8 µM (inactive).

In the case of COc1ccc(CCNC(=O)Cc2ccccc2CO)cc1OC, the GI50 (786-0) is reported as > 100 µM (inactive), the GI50 (A498) is reported as > 100 µM (inactive) and the GI50 (A549) is reported as > 100 µM (inactive). For the same compound, the GI50 (ACHN) was > 100 µM (inactive), the GI50 (BT-549) was > 100 µM (inactive) and the GI50 (CAKI-1) was > 100 µM (inactive). For the same compound, the GI50 (CCRF-CEM) was > 100 µM (inactive), the GI50 (COLO 205) was > 100 µM (inactive) and the GI50 (DU-145) was > 100 µM (inactive). For the same compound, the GI50 (EKVX) was > 100 µM (inactive), the GI50 (HCC 2998) was > 100 µM (inactive) and the GI50 (HCT-116) was > 100 µM (inactive). For the same compound, the GI50 (HCT-15) was over 100 µM, the GI50 (HL-60) was > 100 µM (inactive) and the GI50 (HOP-62) was > 100 µM (inactive). For the same compound, the GI50 (HOP-92) was > 100 µM (inactive), the GI50 (HT-29) was > 100 µM (inactive) and the GI50 (Hs-578T) was > 100 µM (inactive). The GI50 (IGROV-1) was > 100 µM (inactive), the GI50 (K562) was > 100 µM (inactive) and the GI50 (KM12) was > 100 µM (inactive). For the same compound, the GI50 (LOX IMVI) was > 100 µM (inactive), the GI50 (M14) was > 100 µM (inactive) and the GI50 (MCF7) was > 100 µM (inactive). The GI50 (MDA-MB-231) was > 100 µM (inactive), the GI50 (MDA-MB-435) was > 100 µM (inactive) and the GI50 (MDA-N) was > 100 µM (inactive). For the same compound, the GI50 (MOLT-4) was > 100 µM (inactive), the GI50 (NCI-H226) was > 100 µM (inactive) and the GI50 (NCI-H23) was > 100 µM (inactive). For the same compound, the GI50 (NCI-H460) was > 100 µM (inactive), the GI50 (NCI-H522) was > 100 µM (inactive) and the GI50 (NCI/ADR-RES) was > 100 µM (inactive). The GI50 (OVCAR-3) was > 100 µM (inactive), the GI50 (OVCAR-4) was > 100 µM (inactive) and the GI50 (OVCAR-5) was > 100 µM (inactive). For the same compound, the GI50 (OVCAR-8) was > 100 µM (inactive), the GI50 (PC-3) was > 100 µM (inactive) and the GI50 (RPMI-8226) was > 100 µM (inactive). For the same compound, the GI50 (RXF 393) was > 100 µM (inactive), the GI50 (SF-268) was > 100 µM (inactive) and the GI50 (SF-295) was > 100 µM (inactive). The GI50 (SF-539) was > 100 µM (inactive), the GI50 (SK-MEL-28) was > 100 µM (inactive) and the GI50 (SK-MEL-2) was > 100 µM (inactive). The GI50 (SK-MEL-5) was > 100 µM (inactive), the GI50 (SK-OV-3) was > 100 µM (inactive) and the GI50 (SN12C) was > 100 µM (inactive). For the same compound, the GI50 (SNB-75) was > 100 µM (inactive), the GI50 (SR) was > 100 µM (inactive) and the GI50 (SW-620) was > 100 µM (inactive). For the same compound, the GI50 (T47D) was > 100 µM (inactive), the GI50 (TK-10) was > 100 µM (inactive) and the GI50 (U-251) was > 100 µM (inactive). For the same compound, the GI50 (UACC-257) was > 100 µM (inactive), the GI50 (UACC-62) was > 100 µM (inactive) and the GI50 (UO-31) was > 100 µM (inactive).

In the case of COC(=O)CC(=O)Nc1sccc1S(=O)(=O)c1ccccc1, the GI50 (786-0) is reported as 50.5 µM (inactive), the GI50 (A498) is reported as > 100 µM (inactive) and the GI50 (A549) is reported as > 100 µM (inactive). The GI50 (ACHN) was > 100 µM (inactive), the GI50 (BT-549) was 27.5 µM (inactive) and the GI50 (CAKI-1) was > 100 µM (inactive). For the same compound, the GI50 (CCRF-CEM) was > 100 µM (inactive), the GI50 (COLO 205) was > 100 µM (inactive) and the GI50 (DU-145) was 71.3 µM (inactive). The GI50 (EKVX) was > 100 µM (inactive), the GI50 (HCC 2998) was 15.8 µM (inactive) and the GI50 (HCT-116) was > 100 µM (inactive). The GI50 (HCT-15) was 27.2 µM, the GI50 (HL-60) was > 100 µM (inactive) and the GI50 (HOP-92) was > 100 µM (inactive). For the same compound, the GI50 (HT-29) was > 100 µM (inactive), the GI50 (Hs-578T) was > 100 µM (inactive) and the GI50 (IGROV-1) was > 100 µM (inactive). The GI50 (K562) was 80.7 µM (inactive), the GI50 (KM12) was 94.8 µM (inactive) and the GI50 (M14) was 27 µM (inactive). For the same compound, the GI50 (MCF7) was 65.8 µM (inactive), the GI50 (MDA-MB-231) was > 100 µM (inactive) and the GI50 (MDA-MB-435) was > 100 µM (inactive). The GI50 (MDA-N) was 35.2 µM (inactive), the GI50 (MOLT-4) was > 100 µM (inactive) and the GI50 (Malme-3M) was > 100 µM (inactive). The GI50 (NCI-H226) was 40.3 µM (inactive), the GI50 (NCI-H23) was > 100 µM (inactive) and the GI50 (NCI-H460) was > 100 µM (inactive). For the same compound, the GI50 (NCI-H522) was 46.9 µM (inactive), the GI50 (NCI/ADR-RES) was > 100 µM (inactive) and the GI50 (OVCAR-3) was 16.4 µM (inactive). For the same compound, the GI50 (OVCAR-4) was 54.3 µM (inactive), the GI50 (OVCAR-5) was > 100 µM (inactive) and the GI50 (OVCAR-8) was > 100 µM (inactive). For the same compound, the GI50 (PC-3) was 34.4 µM (inactive), the GI50 (RPMI-8226) was > 100 µM (inactive) and the GI50 (RXF 393) was 44.4 µM (inactive). The GI50 (SF-268) was > 100 µM (inactive), the GI50 (SF-295) was > 100 µM (inactive) and the GI50 (SF-539) was 35.1 µM (inactive). The GI50 (SK-MEL-28) was > 100 µM (inactive), the GI50 (SK-MEL-2) was 66.2 µM (inactive) and the GI50 (SK-MEL-5) was > 100 µM (inactive). For the same compound, the GI50 (SK-OV-3) was > 100 µM (inactive), the GI50 (SN12C) was > 100 µM (inactive) and the GI50 (SNB-19) was > 100 µM (inactive). The GI50 (SNB-75) was > 100 µM (inactive), the GI50 (SR) was > 100 µM (inactive) and the GI50 (SW-620) was > 100 µM (inactive). For the same compound, the GI50 (T47D) was > 100 µM (inactive), the GI50 (TK-10) was 65.9 µM (inactive) and the GI50 (U-251) was > 100 µM (inactive). For the same compound, the GI50 (UACC-257) was 67.1 µM (inactive), the GI50 (UACC-62) was 49.1 µM (inactive) and the GI50 (UO-31) was 40.5 µM (inactive).
